In patent US20260078130A1, “NAMPT MODULATORS, PREPARATIONS, AND USES THEREOF” (SIRONAX LTD., priority 2022, published 2026):
Read-outs that look alike come from different tables or passages of the source.

Legend:
[1] = system: endogenous NAMPT in U2OS cells; test: Cellular NAD+ modulation assay (NAD/NADH-Glo, U2OS cells); assay type: cell-based; details: Homo sapiens; for maximal fold induction: read-out: Cellular Emax
Outline: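 Endogenous NAMPT stimulation in U2OS cells treated with compound dilution series for 24 h at 37 °C. Cells lysed with DTAB base, acid-treated 15 min at 60 °C, neutralized, NAD+ read by NAD/NADH-Glo luminescence after 40 min at room temperature. EC50 and Emax (fold over DMSO) derived.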

[2] = target: T1, human enzyme NAMPT (full length) (Homo sapiens, UniProt P43490); test: NMN fluorescence biochemical assay (stimulation of NMN synthesis by NAMPT); details: for EC50: concentration giving half-maximal activation, read-out: Enzymatic EC50; for Enzymatic Emax: fold change of maximal activation compared to DMSO
T1 construct: human enzyme NAMPT (full length)
Outline: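 Full-length human NAMPT (100 nM) was preincubated 15 min at 37 °C with compound in 50 mM Tris-HCl pH 7.5, 10 mM MgCl2, 2 mM DTT, then reacted 1 h at 37 °C with 50 μM NAM, 100 μM PRPP, 4 mM ATP (stated solution concentrations). NMN was derivatised with acetophenone/KOH then formic acid and read at Ex/Em 382/445 nm; EC50 and Emax (fold over DMSO) reported.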

[3] = 24 hours incubation, cellular NAD+
[4] = NMN fluorescence assay, purified human NAMPT 100 nM
[5] = 24 hours incubation with compound
[6] = NMN synthesis by purified human NAMPT (100 nM)

T1 sequence (P43490 whole entry): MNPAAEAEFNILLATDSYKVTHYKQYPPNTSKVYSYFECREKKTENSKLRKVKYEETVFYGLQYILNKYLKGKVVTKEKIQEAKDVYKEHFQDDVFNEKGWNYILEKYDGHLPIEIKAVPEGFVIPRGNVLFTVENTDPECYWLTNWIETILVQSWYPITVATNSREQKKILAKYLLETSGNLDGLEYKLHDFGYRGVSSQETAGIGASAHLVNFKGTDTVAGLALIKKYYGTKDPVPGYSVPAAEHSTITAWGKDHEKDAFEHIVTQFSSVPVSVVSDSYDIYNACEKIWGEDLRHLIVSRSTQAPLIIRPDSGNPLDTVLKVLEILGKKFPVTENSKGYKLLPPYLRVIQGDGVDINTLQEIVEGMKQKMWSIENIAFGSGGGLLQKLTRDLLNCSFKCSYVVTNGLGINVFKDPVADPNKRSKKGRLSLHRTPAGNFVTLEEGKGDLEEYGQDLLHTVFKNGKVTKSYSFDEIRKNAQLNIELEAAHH

EC50 [1, 3]	EC50 [2, 4]	Enzymatic Emax [2]	EC50 [1, 5]	EC50 [2, 6]	SMILES	maximal fold induction [1, 3]	maximal fold induction [1, 5]
500 to 5000 nM	500 to 5000 nM	A (A>3)	–	–	Cn1ncc(Cl)c1CC1c2cc(Cl)cc(F)c2C2(CC2)N1CC1CC2(CNC(=O)O2)C1 (stereo not shown) [Compound 580, 2-((5′-chloro-3′-((4-chloro-1-methyl-1H-pyrazol-5-yl)methyl)-7′-fluorospiro[cyclopropane-1,1′-isoindolin]-2′-yl)methyl)-5-oxa-7-azaspiro[3.4]octan-6-one]	1.2 to 1.5	–
–	–	A (A>3)	500 to 5000 nM	≥ 5000 nM	O=C1c2cc(Br)ccc2CN1Cc1ccc(O)cc1 [Compound 19, 6-bromo-2-(4-hydroxybenzyl) isoindolin-1-one]	–	1.2 to 1.5
500 to 5000 nM	500 to 5000 nM	B (3≥B>2)	–	–	Cc1n[nH]cc1C#CCN1C(=O)c2ccccc2C1Cc1c(Cl)cnn1C (stereo not shown) [Compound 478, 3-((4-chloro-1-methyl-1H-pyrazol-5-yl)methyl)-2-(3-(3-methyl-1H-pyrazol-4-yl)prop-2-yn-1-yl)isoindolin-1-one]	> 1.5	–
< 500 nM	< 500 nM	B (3≥B>2)	–	–	Cn1nc(C(F)F)c(Cl)c1CC1c2ccccc2C(=O)N1Cc1ccc2[nH]nnc2c1 (stereo not shown) [Compound 361, 2-((1H-benzo[d][1,2,3]triazol-5-yl)methyl)-3-((4-chloro-3-(difluoromethyl)-1-methyl-1H-pyrazol-5-yl)methyl)isoindolin-1-one]	> 1.5	–
–	–	C (2≥C)	< 500 nM	< 500 nM	Cn1ncc(C#N)c1CC1c2ccccc2C(=O)N1Cc1ccc2[nH]nnc2c1 (stereo not shown) [Compound 317, 5-((2-((1H-benzo[d][1,2,3]triazol-5-yl)methyl)-3-oxoisoindolin-1-yl)methyl)-1-methyl-1H-pyrazole-4-carbonitrile]	–	1.2 to 1.5
< 500 nM	< 500 nM	B (3≥B>2)	–	–	O=C1c2ccccc2C(Cc2ncccc2Br)N1C/C=C/c1cn[nH]c1 (stereo not shown) [Compound 423, (E)-2-(3-(1H-pyrazol-4-yl)allyl)-3-((3-bromopyridin-2-yl)methyl)isoindolin-1-one]	> 1.5	–
500 to 5000 nM	≥ 5000 nM	B (3≥B>2)	–	–	Cn1ncc(Cl)c1CC1c2ccccc2C2(CC2)N1CC1CC2(CNC(=O)O2)C1 (stereo not shown) [Compound 539, 2-((3′-((4-chloro-1-methyl-1H-pyrazol-5-yl)methyl)spiro[cyclopropane-1,1′-isoindolin]-2′-yl)methyl)-5-oxa-7-azaspiro[3.4]octan-6-one]	1.2 to 1.5	–
500 to 5000 nM	≥ 5000 nM	B (3≥B>2)	–	–	Cc1nnn2cc(CN3C(=O)c4ccccc4C3Cc3c(Cl)cnn3C)ccc12 (stereo not shown) [Compound 627, 3-((4-chloro-1-methyl-1H-pyrazol-5-yl)methyl)-2-((3-methyl-[1,2,3]triazolo[1,5-a]pyridin-6-yl)methyl)isoindolin-1-one]	1.2 to 1.5	–

The remaining lines, values behind:

SMILES	EC50 [1, 3]	EC50 [2, 4]	Enzymatic Emax [2]	EC50 [1, 5]	EC50 [2, 6]	maximal fold induction [1, 3]	maximal fold induction [1, 5]
Cc1ccnc(C#N)c1CC1c2cccc(F)c2C(=O)N1CC1CC2(CNC(=O)O2)C1 (stereo not shown) [Compound 428, 3-((4-fluoro-3-oxo-2-((6-oxo-5-oxa-7-azaspiro[3.4]octan-2-yl)methyl)isoindolin-1-yl)methyl)-4-methylpicolinonitrile]	< 500 nM	500 to 5000 nM	B (3≥B>2)	–	–	> 1.5	–
Cc1ccc2c(c1)C(=O)N(Cc1ccc3[nH]c(=O)oc3c1)C2=O [Compound 297, 5-methyl-2-((2-oxo-2,3-dihydrobenzo[d]oxazol-6-yl)methyl)isoindoline-1,3-dione]	–	–	C (2≥C)	500 to 5000 nM	500 to 5000 nM	–	1.2 to 1.5
Cc1cccc2c1C(=O)N(CC1CC3(CNC(=O)O3)C1)C2Cc1c(Cl)cnn1C (stereo not shown) [Compound 460, 2-((1-((4-chloro-1-methyl-1H-pyrazol-5-yl)methyl)-4-methyl-3-oxoisoindolin-2-yl)methyl)-5-oxa-7-azaspiro[3.4]octan-6-one]	< 500 nM	< 500 nM	B (3≥B>2)	–	–	> 1.5	–
CC1c2cc(NC3CC4(COC4)C3)ccc2C(=O)N1Cc1ccc2[nH]c(=O)oc2c1 (stereo not shown) [Compound 149, 6-((5-((2-oxaspiro[3.3]heptan-6-yl)amino)-3-methyl-1-oxoisoindolin-2-yl)methyl)benzo[d]oxazol-2(3H)-one]	–	–	B (3≥B>2)	500 to 5000 nM	500 to 5000 nM	–	> 1.5
O=C1c2ccccc2C(Cc2ccccc2Cl)N1Cc1ccc2[nH]c(=O)oc2c1 (stereo not shown) [Compound 157, 6-((1-(2-chlorobenzyl)-3-oxoisoindolin-2-yl)methyl)benzo[d]oxazol-2(3H)-one]	–	–	A (A>3)	500 to 5000 nM	< 500 nM	–	> 1.5
Cn1ncc(Cl)c1CC1c2cc(OC3CNC3)ccc2C(=O)N1Cc1ccc2[nH]nnc2c1 (stereo not shown) [Compound 437, 2-((1H-benzo[d][1,2,3]triazol-5-yl)methyl)-5-(azetidin-3-yloxy)-3-((4-chloro-1-methyl-1H-pyrazol-5-yl)methyl)isoindolin-1-one]	5000 to 50000 nM	< 500 nM	A (A>3)	–	–	> 1.5	–
Cc1nn(C)c(CC2c3ccccc3C(=O)N2Cc2ccc3[nH]nnc3c2)c1Cl (stereo not shown) [Compound 337, 2-((1H-benzo[d][1,2,3]triazol-5-yl)methyl)-3-((4-chloro-1,3-dimethyl-1H-pyrazol-5-yl)methyl)isoindolin-1-one]	< 500 nM	< 500 nM	A (A>3)	–	–	> 1.5	–
O=C1c2ncccc2CN1Cc1ccc(O)cc1 [Compound 40, 6-(4-hydroxybenzyl)-5,6-dihydro-7H-pyrrolo[3,4-b]pyridin-7-one]	–	–	B (3≥B>2)	5000 to 50000 nM	≥ 5000 nM	–	1.2 to 1.5
Cn1ncc(Cl)c1CC1c2ccccc2C(=O)N1CC1CC2(CNC(=O)S2)C1 (stereo not shown) [Compound 568, 2-((1-((4-chloro-1-methyl-1H-pyrazol-5-yl)methyl)-3-oxoisoindolin-2-yl)methyl)-5-thia-7-azaspiro[3.4]octan-6-one]	< 500 nM	< 500 nM	B (3≥B>2)	–	–	1.2 to 1.5	–
N#Cc1ccccc1CC1c2ccccc2C(=O)N1Cc1ccc(O)cc1 (stereo not shown) [Compound 169, 2-((2-(4-hydroxybenzyl)-3-oxoisoindolin-1-yl)methyl)benzonitrile]	–	–	B (3≥B>2)	< 500 nM	< 500 nM	–	> 1.5
O=C1NCC2(CC(CN3C(=O)c4ccccc4C3Cc3nnsc3Cl)C2)O1 (stereo not shown) [Compound 538, 2-((1-((5-chloro-1,2,3-thiadiazol-4-yl)methyl)-3-oxoisoindolin-2-yl)methyl)-5-oxa-7-azaspiro[3.4]octan-6-one]	500 to 5000 nM	≥ 5000 nM	C (2≥C)	–	–	> 1.5	–
COc1ccc(CN2C(=O)c3ccc(OC(F)F)cc3C2Cc2c(Cl)cnn2C)cn1 (stereo not shown) [Compound 619, 3-((4-chloro-1-methyl-1H-pyrazol-5-yl)methyl)-5-(difluoromethoxy)-2-((6-methoxypyridin-3-yl)methyl)isoindolin-1-one]	500 to 5000 nM	≥ 5000 nM	A (A>3)	–	–	> 1.5	–
Cc1ccnc(C(N)=O)c1CC1c2ccccc2C(=O)N1Cc1ccc2[nH]nnc2c1 (stereo not shown) [Compound 444, 3-((2-((1H-benzo[d][1,2,3]triazol-5-yl)methyl)-3-oxoisoindolin-1-yl)methyl)-4-methylpicolinamide]	500 to 5000 nM	500 to 5000 nM	A (A>3)	–	–	> 1.5	–
COc1ccc(CN2C(=O)c3ccccc3C2Cc2c(Cl)ccc(=O)n2C)cc1 (stereo not shown) [Compound 589, 3-((3-chloro-1-methyl-6-oxo-1,6-dihydropyridin-2-yl)methyl)-2-(4-methoxybenzyl)isoindolin-1-one]	< 500 nM	500 to 5000 nM	A (A>3)	–	–	> 1.5	–
N#CCc1ccccc1CC1c2ccccc2C(=O)N1Cc1ccc2[nH]c(=O)oc2c1 (stereo not shown) [Compound 173, 2-(2-((3-oxo-2-((2-oxo-2,3-dihydrobenzo[d]oxazol-6-yl)methyl)isoindolin-1-yl)methyl)phenyl)acetonitrile]	–	–	B (3≥B>2)	500 to 5000 nM	500 to 5000 nM	–	> 1.5
Cn1ncc(Cl)c1CC1c2ccccc2C(=O)N1Cc1n[nH]c(=O)o1 (stereo not shown) [Compound 632, 5-((1-((4-chloro-1-methyl-1H-pyrazol-5-yl)methyl)-3-oxoisoindolin-2-yl)methyl)-1,3,4-oxadiazol-2(3H)-one]	500 to 5000 nM	≥ 5000 nM	B (3≥B>2)	–	–	> 1.5	–
O=C1c2ccccc2C(Cc2ncccc2Br)N1Cc1ccc2[nH]c(=O)oc2n1 (stereo not shown) [Compound 241, 5-((1-((3-bromopyridin-2-yl)methyl)-3-oxoisoindolin-2-yl)methyl)oxazolo[5,4-b]pyridin-2(1H)-one]	–	–	A (A>3)	500 to 5000 nM	500 to 5000 nM	–	1.2 to 1.5
